Assay: Rat oral pharmacokinetics (plasma analyzed for eicosapentaenoic acid)
Conditions: analyte EPA in plasma, oral gavage 40 mg/kg as aqueous solution in 0.5% carboxymethyl cellulose, Sprague-Dawley rats, mean of 6 rats; for AUC (0-24): 0-24 h

Compound | AUC (0-24) | Cmax | Tmax
CC/C=C\C/C=C\C/C=C\C/C=C\C/C=C\CCCC(=O)O.CC/C=C\C/C=C\C/C=C\C/C=C\C/C=C\CCCC(=O)O.NCCN [Ethylene diamine di-eicosapentaenoate, Ethane-1,2-diaminium di[5Z,8Z,11Z,14Z,17Z)-icosa-5,8,11,14,17-pentaenoate]] | 275.29 µg·h/mL | 18.37 µg/mL | 2.0 h
C1CNCCN1.CC/C=C\C/C=C\C/C=C\C/C=C\C/C=C\CCCC(=O)O.CC/C=C\C/C=C\C/C=C\C/C=C\C/C=C\CCCC(=O)O [Piperazine di-eicosapentaenoate, Bis[5Z,8Z,11Z,14Z,17Z)-icosa-5,8,11,14,17-pentaenoate]piperazine salt] | 134.85 µg·h/mL | 28.22 µg/mL | 1.0 h
